According to patent US20190307843A1, “SINGLE DOSE METHODS FOR PREVENTING AND TREATING FUNGAL INFECTIONS” (Cidara Therapeutics, Inc., priority 2016, published 2019):
≈ marks a conversion by molar mass, not a printed value. Read-outs that look alike come from different tables or passages of the source.

Test system: Candida auris strains
Test: Candida auris antifungal susceptibility testing (CLSI M27-A3), 38 strains
Type: cell-based
Details: for MIC: Candidozyma auris, read-out: MIC

## CC[C@H](C)C[C@H](C)CCCCCCCCC(=O)N[C@H]1C[C@@H](O)[C@@H](NCCN)NC(=O)[C@@H]2[C@@H](O)CCN2C(=O)[C@H]([C@H](O)CCN)NC(=O)[C@H]([C@H](O)[C@@H](O)c2ccc(O)cc2)NC(=O)[C@@H]2C[C@@H](O)CN2C(=O)[C@H]([C@@H](C)O)NC1=O [CAS, caspofungin]
24 h, strain 1 VPCI 669/P/12, 24 h
  MIC: 0.25 µg/mL (≈ 0.229 µM)
24 h, strain 2 VCPI 671/P/12, 24 h
  MIC: 0.25 µg/mL (≈ 0.229 µM)
24 h, strain 3 VCPI 674/P/12, 24 h
  MIC: 0.25 µg/mL (≈ 0.229 µM)
24 h, strain 4 VCPI 683/P/12, 24 h
  MIC: 0.25 µg/mL (≈ 0.229 µM)
24 h, strain 5 VCPI 692/P/12, 24 h
  MIC: 0.25 µg/mL (≈ 0.229 µM)
24 h, strain 6 VCPI 712/P/12, 24 h
  MIC: 0.25 µg/mL (≈ 0.229 µM)
24 h, strain 7 VCPI 471/P/13, 24 h
  MIC: 1 µg/mL (≈ 0.915 µM)
24 h, strain 8 VCPI 475/P/13, 24 h
  MIC: 0.25 µg/mL (≈ 0.229 µM)
24 h, strain 9 VCPI 478/P/13, 24 h
  MIC: 0.25 µg/mL (≈ 0.229 µM)
24 h, strain 10 VCPI 479/P/13, 24 h
  MIC: 0.5 µg/mL (≈ 0.457 µM)
24 h, strain 11 VCPI 480/P/13, 24 h
  MIC: 0.5 µg/mL (≈ 0.457 µM)
24 h, strain 12 VCPI 482/P/13, 24 h
  MIC: 0.5 µg/mL (≈ 0.457 µM)
24 h, strain 13 VCPI 483/P/13, 24 h
  MIC: 0.25 µg/mL (≈ 0.229 µM)
24 h, strain 14 VCPI 1130/P/13, 24 h
  MIC: 0.5 µg/mL (≈ 0.457 µM)
24 h, strain 15 VCPI 1132/P/13, 24 h
  MIC: 0.5 µg/mL (≈ 0.457 µM)
24 h, strain 16 VCPI 1133/P/13, 24 h
  MIC: 16 µg/mL (≈ 14.6 µM)
24 h, strain 17 VCPI 105/P/14, 24 h
  MIC: 0.5 µg/mL (≈ 0.457 µM)
24 h, strain 18 VCPI 107/P/14, 24 h
  MIC: 0.25 µg/mL (≈ 0.229 µM)
24 h, strain 19 VCPI 510/P/14, 24 h
  MIC: 0.5 µg/mL (≈ 0.457 µM)
24 h, strain 20 VCPI 511/P/14, 24 h
  MIC: 0.5 µg/mL (≈ 0.457 µM)
24 h, strain 21 VCPI 512/P/14, 24 h
  MIC: 0.5 µg/mL (≈ 0.457 µM)
24 h, strain 22 VCPI 513/P/14, 24 h
  MIC: 1 µg/mL (≈ 0.915 µM)
24 h, strain 23 VCPI 514/P/14, 24 h
  MIC: 0.5 µg/mL (≈ 0.457 µM)
24 h, strain 24 VCPI 250/P/14, 24 h
  MIC: 0.5 µg/mL (≈ 0.457 µM)
24 h, strain 25 VCPI 265/P/14, 24 h
  MIC: 8 µg/mL (≈ 7.32 µM)
24 h, strain 26 VCPI 266/P/14, 24 h
  MIC: 0.125 µg/mL (≈ 0.114 µM)
24 h, strain 27 VCPI 462/P/14, 24 h
  MIC: 8 µg/mL (≈ 7.32 µM)
24 h, strain 28 VCPI 463/P/14, 24 h
  MIC: 0.5 µg/mL (≈ 0.457 µM)
24 h, strain 29 VCPI 467/P/14, 24 h
  MIC: 0.125 µg/mL (≈ 0.114 µM)
24 h, strain 30 VCPI 471a/P/14, 24 h
  MIC: 4 µg/mL (≈ 3.66 µM)
24 h, strain 31 VCPI 478/P/14, 24 h
  MIC: 1 µg/mL (≈ 0.915 µM)
24 h, strain 32 VCPI 518/P/14, 24 h
  MIC: 0.5 µg/mL (≈ 0.457 µM)
24 h, strain 33 VCPI 550/P/14, 24 h
  MIC: 0.125 µg/mL (≈ 0.114 µM)
24 h, strain 34 VCPI 714/P/14, 24 h
  MIC: 0.5 µg/mL (≈ 0.457 µM)
24 h, strain 35 VCPI 717/P/14, 24 h
  MIC: 0.5 µg/mL (≈ 0.457 µM)
24 h, strain 36 VCPI 1060/P/14, 24 h
  MIC: 0.5 µg/mL (≈ 0.457 µM)
24 h, strain 37 VCPI 74/P/15, 24 h
  MIC: 0.5 µg/mL (≈ 0.457 µM)
24 h, strain 38 VCPI 213/P/15, 24 h
  MIC: 0.5 µg/mL (≈ 0.457 µM)
48 h, strain 1 VPCI 669/P/12, 48 h
  MIC: > 16 µg/mL
48 h, strain 2 VCPI 671/P/12, 48 h
  MIC: > 16 µg/mL
48 h, strain 3 VCPI 674/P/12, 48 h
  MIC: 0.25 µg/mL (≈ 0.229 µM)
48 h, strain 4 VCPI 683/P/12, 48 h
  MIC: > 16 µg/mL
48 h, strain 5 VCPI 692/P/12, 48 h
  MIC: > 16 µg/mL
48 h, strain 6 VCPI 712/P/12, 48 h
  MIC: 0.25 µg/mL (≈ 0.229 µM)
48 h, strain 7 VCPI 471/P/13, 48 h
  MIC: > 16 µg/mL
48 h, strain 8 VCPI 475/P/13, 48 h
  MIC: 0.25 µg/mL (≈ 0.229 µM)
48 h, strain 9 VCPI 478/P/13, 48 h
  MIC: > 16 µg/mL
48 h, strain 10 VCPI 479/P/13, 48 h
  MIC: > 16 µg/mL
48 h, strain 11 VCPI 480/P/13, 48 h
  MIC: > 16 µg/mL
48 h, strain 12 VCPI 482/P/13, 48 h
  MIC: > 16 µg/mL
48 h, strain 13 VCPI 483/P/13, 48 h
  MIC: 0.25 µg/mL (≈ 0.229 µM)
48 h, strain 14 VCPI 1130/P/13, 48 h
  MIC: 0.5 µg/mL (≈ 0.457 µM)
48 h, strain 15 VCPI 1132/P/13, 48 h
  MIC: 0.5 µg/mL (≈ 0.457 µM)
48 h, strain 16 VCPI 1133/P/13, 48 h
  MIC: > 16 µg/mL
48 h, strain 17 VCPI 105/P/14, 48 h
  MIC: 1 µg/mL (≈ 0.915 µM)
48 h, strain 18 VCPI 107/P/14, 48 h
  MIC: 0.5 µg/mL (≈ 0.457 µM)
48 h, strain 19 VCPI 510/P/14, 48 h
  MIC: > 16 µg/mL
48 h, strain 20 VCPI 511/P/14, 48 h
  MIC: > 16 µg/mL
48 h, strain 21 VCPI 512/P/14, 48 h
  MIC: 1 µg/mL (≈ 0.915 µM)
48 h, strain 22 VCPI 513/P/14, 48 h
  MIC: > 16 µg/mL
48 h, strain 23 VCPI 514/P/14, 48 h
  MIC: 1 µg/mL (≈ 0.915 µM)
48 h, strain 24 VCPI 250/P/14, 48 h
  MIC: 0.5 µg/mL (≈ 0.457 µM)
48 h, strain 25 VCPI 265/P/14, 48 h
  MIC: > 16 µg/mL
48 h, strain 26 VCPI 266/P/14, 48 h
  MIC: 0.125 µg/mL (≈ 0.114 µM)
48 h, strain 27 VCPI 462/P/14, 48 h
  MIC: > 16 µg/mL
48 h, strain 28 VCPI 463/P/14, 48 h
  MIC: 0.5 µg/mL (≈ 0.457 µM)
48 h, strain 29 VCPI 467/P/14, 48 h
  MIC: 0.5 µg/mL (≈ 0.457 µM)
48 h, strain 30 VCPI 471a/P/14, 48 h
  MIC: > 16 µg/mL
48 h, strain 31 VCPI 478/P/14, 48 h
  MIC: 2 µg/mL (≈ 1.83 µM)
48 h, strain 32 VCPI 518/P/14, 48 h
  MIC: 16 µg/mL (≈ 14.6 µM)
48 h, strain 33 VCPI 550/P/14, 48 h
  MIC: 0.25 µg/mL (≈ 0.229 µM)
48 h, strain 34 VCPI 714/P/14, 48 h
  MIC: > 16 µg/mL
48 h, strain 35 VCPI 717/P/14, 48 h
  MIC: > 16 µg/mL
48 h, strain 36 VCPI 1060/P/14, 48 h
  MIC: > 16 µg/mL
48 h, strain 37 VCPI 74/P/15, 48 h
  MIC: > 16 µg/mL
48 h, strain 38 VCPI 213/P/15, 48 h
  MIC: > 16 µg/mL
Of 38 C. auris isolates
  number of resistant isolates: 4
